Patent US20040006042A1, “Diaminopyrimidines and combination therapies effective for treatment of P-glycoprotein positive cancers” (priority 1998, published 2004)
In brackets after ≈: the same amount, converted by molar mass. Several values for one entry are separate records, joined by “and”; a condition that tells them apart may be missing. Equal values may be shown once. Where a name gives a salt, the structure may show the parent alone. Read-outs that look alike come from different tables or passages of the source.

Experiments:
dihydrofolate reductase = molecular target: T1, dihydrofolate reductase (Homo sapiens, UniProt P00374); assay: Inhibition of dihydrofolate reductase (Table 1); assay type: biochemical
T1 sequence (P00374 1-187): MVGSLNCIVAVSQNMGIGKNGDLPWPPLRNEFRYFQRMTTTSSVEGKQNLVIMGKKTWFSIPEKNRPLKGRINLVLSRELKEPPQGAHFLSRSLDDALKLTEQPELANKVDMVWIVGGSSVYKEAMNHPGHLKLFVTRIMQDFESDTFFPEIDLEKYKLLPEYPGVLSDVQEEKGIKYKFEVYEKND

P388 leukemia = assay: In vivo P388 leukemia life span study; parameters: species or system CD2F1 mice; conditions: maximum tolerated dose, i.p. Days 3-11 (Adriamycin Days 3, 7, 11); >130 = antitumor effect
P388/ADR cells [1] = assay: In vitro growth inhibition of P388/ADR cells; assay type: cell-based, murine; conditions: for IC50: Mus musculus, P388/ADR; for R/S: ratio resistant (P388/ADR) to sensitive (P388S) IC50
P388S cells = assay: In vitro growth inhibition of P388S cells; assay type: cell-based; conditions: for IC50: Mus musculus, P388/S, read-out: P388S IC50
C26/10 tumor = assay: C26/10 s.c. tumor growth delay study; assay type: in vivo, CD2F1 mice; conditions: tumor growth delay to 750 mg, s.c. implant, treated i.p. Days 3-7 and 10-14; >5 to 6 days = antitumor effect
Description: (§1) To test compounds of the present invention in vivo, the following methodology was used. P388 leukemia and its Adriamycin resistant subline, P388/ADR were passed weekly in DBA/2 mice as i.p. implants of 10^5 and 10^6 cells, respectively. Animals bearing P388/ADR passage were treated with 7 mg/kg Adriamycin on Day 3 post-implant as a resistance selection pressure. C26/clone 10 was passed every 2 weeks into Balb/c mice as tumor fragments (approximately 30 mg) which were obtained from tumors 1 g in mass.
For the tumor growth delay studies with C26/10, CD2F1 mice were implanted s.c. with 30 mg tumor fragments in the region of the right axilla with the aid of a trocar on Day 0. Animals were treated i.p. with test agents in the vehicles described above on Days 3-7 and 10-14. Adriamycin was dosed i.p. in saline on Days 5, 9, and 13. Tumors in the treated and control groups were measured twice weekly in two perpendicular dimensions and tumor mass calculated according to the formula: mass (mg)=(a×b^2)/2 where “b” is the smallest tumor dimension and “a” is the largest. Calculations of tumor growth delay, defined as the median time (in days) for the treated tumors to reach 750 mg in size minus the median time (in days) for the control tumors to reach 750 mg in size, were as described previously (Schabel, 1977; Leopold, 1985; Elliot, 1984). Growth delays in excess of 5 to 6 days in the C26/10 model are considered to be an antitumor effect.

[2] = test system: Colon 26/clone 10 (C26/10); assay: Colon 26/clone 10 i.p. life span study; assay type: in vivo, CD2F1 mice; conditions: for C26 ip T/C: i.p. implant, treated i.p. Days 3-7 and 10-14 (Adriamycin Days 5, 9, 13), >130 = antitumor effect
Description: as §1
Colon 26/clone 10 (C26/10) life span studies were conducted in CD2F1 mice. C26/C10 cells were implanted i.p. on Day 0. Animals were treated i.p. with test agents in the vehicles described above on Days 3-7 and 10-14. Adriamycin was dosed i.p. in saline on Days 5, 9, and 13. […] Percent T/C values in excess of 130 are indicative of an antitumor effect in this model.

P388/ADR leukemia = assay: In vivo P388/ADR leukemia life span study; parameters: species or system CD2F1 mice; conditions: for P388/ADR T/C: maximum tolerated dose, i.p. Days 3-11 (Adriamycin Days 3, 7, 11), >130 = antitumor effect
[3] = test system: P388 murine leukemia cells; assay: Combination of antifolates with FU and LV on P388 proliferation; assay type: cell-based; conditions: for Antifol + FU / Antifol + LV / Antifol + LV + FU: antifolate 1.0 nM 24 hours; for Antifol + FU / Antifol + LV + FU: 5 μM FU final 4 hours; for Antifol + LV / Antifol + LV + FU: LV 10 μM final 4.5 hours; for Antifol: antifolate 1.0 nM, 24 hours
P388/ADR cells [4] = assay: Combination of antifolates with FU and LV on P388/ADR proliferation; assay type: cell-based, murine; conditions: P388/ADR; for Antifol + FU / Antifol + LV / Antifol + LV + FU: antifolate 1 nM 24 hours; for Antifol + FU / Antifol + LV + FU: 5 μM FU final 4 hours; for Antifol + LV / Antifol + LV + FU: LV 10 μM final 4.5 hours; for Antifol: antifolate 1 nM, 24 hours
[5] = test system: HT29 human colon adenocarcinoma cells
[6] = test system: HT29 human colon adenocarcinoma cells; assay: Combination of antifolates with FU and LV on HT-29 proliferation (sulphorhodamine B); conditions: for Antifol + LV: antifolate 62.5 nM 24 hours, LV 10 μM final 4.5 hours; for Antifol: antifolate 62.5 nM, 24 hours
[7] = test system: C26 murine colon tumor cells; assay: Combination of antifolates with FU and LV on C26 proliferation; assay type: cell-based; conditions: C26; 5 μM FU alone, 4 hours

Compound	Ki (dihydrofolate reductase) [nM]	P388S T/C (P388 leukemia) [%]	IC50 (P388/ADR cells [1]; in vitro) [µg/mL]	R/S (P388/ADR cells [1])	IC50 (P388S cells; in vitro) [µg/mL]	C26 sc T-C (C26/10 tumor) [days]	C26 ip T/C [2] [%]	P388/ADR T/C (P388/ADR leukemia) [%]	Antifol + FU (P388/ADR cells [4])	Antifol + LV (P388/ADR cells [4])	Antifol + LV + FU (P388/ADR cells [4])	Antifol (P388/ADR cells [4])	other results
Cc1nc(N)nc(N)c1N1CCN(c2ccc(CNC(CCC(=O)O)C(=O)O)cc2)CC1 (stereo not drawn) [A]	–	–	–	–	–	–	–	–	–	–	–	–	Ki (dihydrofolate reductase; read-out: Ki): 0.053 nM
Cc1nc(N)nc(N)c1N1CCN(c2ccc(S(C)(=O)=O)cc2)CC1 [E]	0.138	–	–	–	–	–	–	–	–	–	–	–	–
Cc1nc(N)nc(N)c1N1CCN(c2ccc(C=O)cc2)CC1 [Example 1]	0.073	190	0.0068 (≈ 0.0218 µM)	1.1	0.005 (≈ 0.016 µM)	7.6	263	169	–	–	–	–	activity against C26 colon tumor in vivo ([2]; in words, T/C×100>130 represents in vivo antitumor activity): curative
Cc1nc(N)nc(N)c1N1CCN(c2ccc(C(=O)N(C)N)cc2)CC1 [Example 13, 4-[4-(2,4-Diamino-6-methyl-5-pryimidinyl)-1-piperazinyl]benzoic acid, 1-methylhydrazide]	–	–	–	–	–	–	–	–	–	–	–	–	Antifol + FU [3]: 10% of control; Antifol + LV [3]: 85% of control; Antifol + LV + FU [3]: 7% of control; Antifol [3]: 85% of control
CCOC(=O)CCC(NC(=O)c1ccc(N2CCN(c3c(N)nc(N)nc3CC)CC2)cc1)C(=O)OCC (stereo not drawn) [C, 2-{4-[4-(2,4-Diamino-6-ethyl-pyrimidin-5-yl)-pierazin-1-yl]-benzoylamino}pentanedioic acid diethyl ester]	0.109	–	–	–	–	–	–	–	40% of control	80% of control	30% of control	88% of control	–
Cc1nc(N)nc(N)c1N1CCN(c2ccc(/C=N/OCCN)cc2)CC1 [Example 12, 4-[4-(2,4-Diamino-6-methyl-pyrimidin-5-yl)-piperazin-1-yl]-benzaldehyde O-(2-amino-ethyl)-oxime, dihydrochloride]	–	–	0.0117	1.1	–	5.2	–	–	30% of control	65% of control	25% of control	65% of control	Antifol + FU [3]: 20% of control; Antifol + LV [3]: 97% of control; Antifol + LV + FU [3]: 16% of control; Antifol [3]: 100% of control; IC50 (P388S cells): 0.011 µg/mL; Antifol + FU [5]: 35% of control; Antifol + LV + FU [5]: 27% of control; Antifol + LV [6]: 67% of control; Antifol [6]: 52% of control
Nc1ncc(N2CCN(c3ccc(C(=O)O)cc3)CC2)c(N)n1 [G]	–	220	–	0.98	–	4.9	202	245	–	–	–	–	P388/ADR IC50 (P388/ADR cells [1]; in vitro): 0.074 µg/mL; P388S IC50 (P388S cells; in vitro): 0.076 µg/mL
COc1cccc2c1C(=O)c1c(O)c3c(c(O)c1C2=O)C[C@@](O)(C(=O)CO)C[C@@H]3O[C@H]1C[C@H](N)[C@H](O)[C@H](C)O1 [Adriamycin, reference compound]	–	250	3.9 (≈ 7.18 µM)	52	0.075 (≈ 0.138 µM)	–	180	108	–	–	–	–	activity against P388/ADR tumors in vivo (P388/ADR leukemia; in words): inactive
Cc1nc(N)nc(N)c1N1CCN(c2ccc(C(=O)O)cc2)CC1 [B, 4-[4-(2,4-Diamino-6-methyl-pyrimidin-5-yl)-piperzain-1-yl]-benzoic acid]	0.201	–	–	–	–	–	–	–	30% of control	70% of control	28% of control	62% of control	–
Cc1nc(N)nc(N)c1-c1ncncc1-c1ccc(C(=O)O)cc1 [Compound F, 4-[4-(2,4-Diamino-6-methyl-pyrimidin-5-yl)-pyrimidin-5-yl]-benzoic acid]	–	260	0.04 (≈ 0.124 µM)	1.1	0.033 (≈ 0.102 µM)	–	–	–	–	–	–	–	–
O=c1[nH]cc(F)c(=O)[nH]1 [FU, 5-fluorouracil, reference compound]	–	–	–	–	–	–	–	–	–	–	–	–	FU ([3]; 5 μM FU alone, 4 hours): 90% of control and 90* percent of control; FU (P388/ADR cells [4]; 5 μM FU alone, 4 hours): 90% of control and 90* percent of control; FU [7]: 72% of Control
CC(=O)c1ccc(N2CCN(c3c(C)nc(N)nc3N)CC2)cc1F [H, 1-{4-[4-(2,4-Diamino-6-methyl-pyrimidin-5-yl)-piperazin-1-yl]-2-fluoro-phenyl}-ethanone]	–	170	0.029 (≈ 0.0842 µM)	1.1	0.0026 (≈ 0.00755 µM)	9.4	169	–	–	–	–	–	Antifol + FU [3]: 20% of control; Antifol + LV [3]: 86% of control; Antifol + LV + FU [3]: 15% of control; Antifol [3]: 82% of control; Antifol + FU [5]: 52% of control; Antifol + LV + FU [5]: 40% of control; Antifol + LV [6]: 77% of control; Antifol [6]: 74% of control
Cc1nc(N)nc(N)c1N1CCN(c2ccc(C(=O)NN)cc2)CC1 [Example 11, 4-[4-(2,4-Diamino-6-methyl-5-pyrinidinyl)-1-piperazinyl]benzoic acid, hydrazide]	–	195	0.0161 (≈ 0.047 µM)	1.5	0.0105 (≈ 0.0307 µM)	–	164	161	48% of control	80% of control	16% of control	77% of control	Antifol + FU [5]: 42% of control; Antifol + LV + FU [5]: 33% of control; Antifol + LV [6]: 80% of control; Antifol [6]: 87% of control
